Reference: PubChem BioAssay (NCI)
Several values for one entry are separate records, joined by “and”; a condition that tells them apart may be missing. Equal values may be shown once.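 96-well plates; 48 h exposure; 5 concentrations. Endpoints by linear interpolation between flanking doses. Not reached: highest tested concentration assigned. At the GI50, growth is halved. The concentration for full growth arrest is given as TGI.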

Experiments:
Assay in all cases: growth of human tumour cells (NCI), 48 h
UACC-62 melanoma = system: UACC-62 melanoma
DU-145 prostate = system: DU-145 prostate
CCRF-CEM leukemia = system: CCRF-CEM leukemia
MDA-N = system: MDA-N
A549 NSCLC = system: A549 NSCLC
CAKI-1 renal = system: CAKI-1 renal
SF-295 CNS = system: SF-295 CNS
SNB-75 CNS = system: SNB-75 CNS
SW-620 colon = system: SW-620 colon
786-0 renal = system: 786-0 renal
HCT-116 colon = system: HCT-116 colon
NCI-H23 lung = system: NCI-H23 lung
UO-31 renal = system: UO-31 renal
RPMI-8226 leukemia = system: RPMI-8226 leukemia
OVCAR-8 ovarian = system: OVCAR-8 ovarian
LOX IMVI melanoma = system: LOX IMVI melanoma
HOP-62 NSCLC = system: HOP-62 NSCLC
HS 578T breast = system: HS 578T breast
SN12C renal = system: SN12C renal
NCI-H460 lung = system: NCI-H460 lung
SK-MEL-28 melanoma = system: SK-MEL-28 melanoma
MALME-3M melanoma = system: MALME-3M melanoma
COLO 205 colon = system: COLO 205 colon
HL-60(TB) leukemia = system: HL-60(TB) leukemia
NCI-H522 lung = system: NCI-H522 lung
SF-268 CNS = system: SF-268 CNS
BT-549 breast = system: BT-549 breast
EKVX NSCLC = system: EKVX NSCLC
SF-539 CNS = system: SF-539 CNS
U251 CNS = system: U251 CNS
SK-MEL-2 melanoma = system: SK-MEL-2 melanoma
MOLT-4 leukemia = system: MOLT-4 leukemia
KM12 colon = system: KM12 colon
SK-OV-3 ovarian = system: SK-OV-3 ovarian
RXF 393 renal = system: RXF 393 renal
T-47D breast = system: T-47D breast
NCI/ADR-RES ovarian = system: NCI/ADR-RES ovarian
PC-3 prostate = system: PC-3 prostate
TK-10 renal = system: TK-10 renal
IGROV1 ovarian = system: IGROV1 ovarian
ACHN renal = system: ACHN renal
OVCAR-4 ovarian = system: OVCAR-4 ovarian
MDA-MB-435 = system: MDA-MB-435
OVCAR-5 ovarian = system: OVCAR-5 ovarian
M14 melanoma = system: M14 melanoma
MCF7 breast = system: MCF7 breast
NCI-H226 lung = system: NCI-H226 lung
SR leukemia = system: SR leukemia
K-562 leukemia = system: K-562 leukemia
HCC-2998 colon = system: HCC-2998 colon
UACC-257 melanoma = system: UACC-257 melanoma
SK-MEL-5 melanoma = system: SK-MEL-5 melanoma
HOP-92 NSCLC = system: HOP-92 NSCLC
A498 renal = system: A498 renal
MDA-MB-231 breast = system: MDA-MB-231 breast
SNB-19 CNS = system: SNB-19 CNS
OVCAR-3 ovarian = system: OVCAR-3 ovarian
HT29 colon = system: HT29 colon
HCT-15 colon = system: HCT-15 colon
DMS 114 small cell lung = system: DMS 114 small cell lung

In the case of `COc1cc(CC(C)C(C)Cc2ccc(O)c(OC)c2)ccc1O` (configuration not stated), the GI50 (UACC-62 melanoma) is reported as 14.4 µM, the TGI (UACC-62 melanoma) is reported as 50 µM and 27.6 µM and the GI50 (DU-145 prostate) is reported as 17 µM. The TGI (DU-145 prostate) was 50 µM and 30.6 µM, the GI50 (CCRF-CEM leukemia) was 0.0496 µM and the TGI (CCRF-CEM leukemia) was 40.2 µM and 20.8 µM. For the same compound, the GI50 (MDA-N) was 13.7 µM, the TGI (MDA-N) was 50 µM and 26.6 µM and the TGI (A549 NSCLC) was 50 µM and 27.1 µM. The TGI (CAKI-1 renal) was 50 µM and 31.9 µM, the TGI (SF-295 CNS) was 50 µM and 35.1 µM and the GI50 (SNB-75 CNS) was 18.4 µM. The TGI (SNB-75 CNS) was 50 µM and 34.5 µM, the TGI (SW-620 colon) was 50 µM and 35 µM and the GI50 (786-0 renal) was 13.6 µM. For the same compound, the TGI (786-0 renal) was 50 µM and 26.5 µM, the GI50 (HCT-116 colon) was 14.6 µM and the TGI (HCT-116 colon) was 50 µM and 27.7 µM. The GI50 (NCI-H23 lung) was 21.2 µM, the TGI (NCI-H23 lung) was 50 µM and 44.4 µM and the TGI (UO-31 renal) was 25.3 µM. For the same compound, the GI50 (RPMI-8226 leukemia) was 19.4 µM, the TGI (RPMI-8226 leukemia) was 17.4 µM and 45.8 µM and the TGI (OVCAR-8 ovarian) was 50 µM and 41 µM. The GI50 (LOX IMVI melanoma) was 17.9 µM, the TGI (LOX IMVI melanoma) was 30.7 µM and 40.9 µM and the GI50 (HOP-62 NSCLC) was 17.6 µM. For the same compound, the TGI (HOP-62 NSCLC) was 50 µM and 33.6 µM, the GI50 (HS 578T breast) was 20 µM and the TGI (HS 578T breast) was 22.7 µM and 49.8 µM. The GI50 (SN12C renal) was 13.1 µM, the TGI (SN12C renal) was 50 µM and 26 µM and the GI50 (NCI-H460 lung) was 18.3 µM. The TGI (NCI-H460 lung) was 39.9 µM and 32.3 µM, the TGI (SK-MEL-28 melanoma) was 50 µM and 35.5 µM and the GI50 (MALME-3M melanoma) was 16.2 µM. The TGI (MALME-3M melanoma) was 32.7 µM and 34 µM, the GI50 (COLO 205 colon) was 18.1 µM and the TGI (COLO 205 colon) was > 50 µM and 32.9 µM. For the same compound, the GI50 (HL-60(TB) leukemia) was 0.0179 µM, the GI50 (NCI-H522 lung) was 16.2 µM and the TGI (NCI-H522 lung) was 21.4 µM and 33.5 µM. For the same compound, the TGI (SF-268 CNS) was 50 µM and 34.7 µM, the TGI (BT-549 breast) was 50 µM and 31.4 µM and the TGI (EKVX NSCLC) was 41.5 µM and 30.3 µM. The GI50 (SF-539 CNS) was 17 µM, the TGI (SF-539 CNS) was 50 µM and 31.6 µM and the TGI (U251 CNS) was 50 µM. The TGI (SK-MEL-2 melanoma) was 25 µM, the GI50 (MOLT-4 leukemia) was 1.39 µM and the TGI (MOLT-4 leukemia) was 22 µM and 13 µM. For the same compound, the GI50 (KM12 colon) was 17.6 µM, the TGI (KM12 colon) was 50 µM and 33.8 µM and the GI50 (SK-OV-3 ovarian) was 16.9 µM. For the same compound, the TGI (SK-OV-3 ovarian) was 50 µM and 33.4 µM, the GI50 (RXF 393 renal) was 17.7 µM and the TGI (RXF 393 renal) was 42.7 µM and 35.4 µM. The GI50 (T-47D breast) was 21.9 µM, the TGI (T-47D breast) was 50 µM and 50.6 µM and the TGI (NCI/ADR-RES ovarian) was 50 µM and 41.6 µM. The TGI (PC-3 prostate) was 27.7 µM, the GI50 (TK-10 renal) was 18.2 µM and the TGI (TK-10 renal) was 50 µM and 32.7 µM. The GI50 (IGROV1 ovarian) was 16.4 µM, the TGI (IGROV1 ovarian) was 43.1 µM and 33.7 µM and the TGI (ACHN renal) was 37.9 µM and 28.2 µM. For the same compound, the GI50 (OVCAR-4 ovarian) was 17.3 µM, the TGI (OVCAR-4 ovarian) was 50 µM and 41.2 µM and the GI50 (MDA-MB-435) was 15.1 µM. For the same compound, the TGI (MDA-MB-435) was 38.4 µM and 29.6 µM, the GI50 (OVCAR-5 ovarian) was 14.4 µM and the TGI (OVCAR-5 ovarian) was > 50 µM and 27.7 µM. For the same compound, the TGI (M14 melanoma) was 47.5 µM and 30.2 µM, the TGI (MCF7 breast) was 38 µM and the GI50 (NCI-H226 lung) was 16.8 µM. For the same compound, the TGI (NCI-H226 lung) was 40.7 µM and 33.2 µM, the GI50 (SR leukemia) was 6.41 µM and the TGI (SR leukemia) was 18.8 µM and 24.9 µM. For the same compound, the GI50 (K-562 leukemia) was 12.7 µM, the TGI (K-562 leukemia) was 50 µM and 39 µM and the TGI (HCC-2998 colon) was 32.7 µM. The GI50 (UACC-257 melanoma) was 19.2 µM, the TGI (UACC-257 melanoma) was 50 µM and 37.3 µM and the GI50 (SK-MEL-5 melanoma) was 14.9 µM. For the same compound, the TGI (SK-MEL-5 melanoma) was 16.5 µM and 28.1 µM, the GI50 (HOP-92 NSCLC) was 14.5 µM and the TGI (HOP-92 NSCLC) was 27.6 µM and 30.2 µM. It also gave a TGI (A498 renal) of 32.8 µM, a TGI (MDA-MB-231 breast) of 50 µM and a GI50 (SNB-19 CNS) of 15.8 µM. For the same compound, the TGI (SNB-19 CNS) was 50 µM and 29.6 µM, the TGI (OVCAR-3 ovarian) was 50 µM and 32.5 µM and the GI50 (HT29 colon) was 16.2 µM. The TGI (HT29 colon) was 50 µM and 31.1 µM, the GI50 (HCT-15 colon) was 18 µM and the TGI (HCT-15 colon) was 50 µM and 39.9 µM.
Work on `CC(=O)OCC1OC(n2c(=S)n(-c3ccc(C)cc3)c(=O)c3ccccc32)C(OC(C)=O)C(OC(C)=O)C1OC(C)=O` (configuration not stated) yielded a TGI (UO-31 renal) of over 100 µM, a TGI (RPMI-8226 leukemia) of over 100 µM and a TGI (MOLT-4 leukemia) of over 100 µM. For the same compound, the TGI (RXF 393 renal) was over 100 µM, the TGI (TK-10 renal) was over 100 µM and the GI50 (OVCAR-4 ovarian) was 17 µM and 45.1 µM. For the same compound, the TGI (OVCAR-4 ovarian) was 83.9 µM and > 100 µM, the TGI (SR leukemia) was over 100 µM and the TGI (HOP-92 NSCLC) was over 100 µM. For the same compound, the GI50 (DMS 114 small cell lung) was 41.9 µM and 90 µM and the TGI (DMS 114 small cell lung) was over 100 µM.
